# Entries after “also recorded” stand apart in the source; their conditions may differ. Where two headings read alike, the source gives them in different places.
# Tests used:
# α7 nAChR = α7 nAChR (Sus scrofa, UniProt F1SNR6); experiment: biochemical; type: binding, porcine
# α4 nAChR = α4 nAChR (Sus scrofa, UniProt A0A286ZKF4+A0A287BFD8); type: binding, porcine; settings: for Ki: read-out: Mean Ki against [3H]-cytisine
# [1] = test system: isolated retinal ganglion cells; type: cell-based, porcine
# α7 nAChRs = settings: cited from earlier work
# α3β4 receptors = settings: cited from earlier work
# [2] = test system: isolated retinal ganglion cells; settings: cited from earlier work
# isolated rat RGCs = settings: cited from earlier work
# RGC = settings: in vivo; cited from earlier work
# α3 nAChR = α3 nAChR (Sus scrofa, UniProt A0A287A7Z4); type: binding, porcine; settings: read-out: Mean Ki against [3H]-epibatidine
# retinal ganglion cells = type: cell-based, rat
# α4β2 nicotinic receptors = settings: cited from earlier work
# α7 nicotinic receptors = settings: cited from earlier work
# adult porcine RGCs = settings: cited from earlier work
# [3] = rat retinal slice, RGCs, fluo-4 fluorescence, n = 4
# α4 nAChR, sequence (A0A286ZKF4 31-595 limits assumed): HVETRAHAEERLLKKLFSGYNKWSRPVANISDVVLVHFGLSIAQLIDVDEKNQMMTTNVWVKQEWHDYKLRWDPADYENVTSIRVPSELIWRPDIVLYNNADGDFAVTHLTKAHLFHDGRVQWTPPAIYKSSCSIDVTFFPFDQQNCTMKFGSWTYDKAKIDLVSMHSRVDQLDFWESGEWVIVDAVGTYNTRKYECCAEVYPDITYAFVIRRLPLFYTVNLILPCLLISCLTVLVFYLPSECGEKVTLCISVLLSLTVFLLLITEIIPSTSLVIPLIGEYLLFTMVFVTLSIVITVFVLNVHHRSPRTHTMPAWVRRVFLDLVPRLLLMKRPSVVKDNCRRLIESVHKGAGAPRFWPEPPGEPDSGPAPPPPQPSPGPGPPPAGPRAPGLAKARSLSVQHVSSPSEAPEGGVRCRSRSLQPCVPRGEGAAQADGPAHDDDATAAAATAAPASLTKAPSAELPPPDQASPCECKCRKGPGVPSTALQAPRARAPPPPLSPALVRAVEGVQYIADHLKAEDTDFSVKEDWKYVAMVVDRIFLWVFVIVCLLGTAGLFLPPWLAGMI
# α4 nAChR, sequence (A0A287BFD8 26-502 limits assumed): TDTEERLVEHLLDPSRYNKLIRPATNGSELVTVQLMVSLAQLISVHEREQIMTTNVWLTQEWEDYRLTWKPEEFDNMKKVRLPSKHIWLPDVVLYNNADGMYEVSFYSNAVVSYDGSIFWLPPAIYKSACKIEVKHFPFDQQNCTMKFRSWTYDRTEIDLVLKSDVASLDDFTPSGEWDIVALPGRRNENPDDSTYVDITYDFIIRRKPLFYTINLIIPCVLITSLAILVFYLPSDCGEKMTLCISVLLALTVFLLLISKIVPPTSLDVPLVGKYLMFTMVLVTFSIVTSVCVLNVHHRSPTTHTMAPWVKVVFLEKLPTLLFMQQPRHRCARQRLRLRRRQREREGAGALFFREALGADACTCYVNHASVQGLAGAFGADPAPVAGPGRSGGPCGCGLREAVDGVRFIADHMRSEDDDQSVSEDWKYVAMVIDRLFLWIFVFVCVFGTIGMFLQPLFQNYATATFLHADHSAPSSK
# α7 nAChR, sequence (F1SNR6 20-499 limits assumed): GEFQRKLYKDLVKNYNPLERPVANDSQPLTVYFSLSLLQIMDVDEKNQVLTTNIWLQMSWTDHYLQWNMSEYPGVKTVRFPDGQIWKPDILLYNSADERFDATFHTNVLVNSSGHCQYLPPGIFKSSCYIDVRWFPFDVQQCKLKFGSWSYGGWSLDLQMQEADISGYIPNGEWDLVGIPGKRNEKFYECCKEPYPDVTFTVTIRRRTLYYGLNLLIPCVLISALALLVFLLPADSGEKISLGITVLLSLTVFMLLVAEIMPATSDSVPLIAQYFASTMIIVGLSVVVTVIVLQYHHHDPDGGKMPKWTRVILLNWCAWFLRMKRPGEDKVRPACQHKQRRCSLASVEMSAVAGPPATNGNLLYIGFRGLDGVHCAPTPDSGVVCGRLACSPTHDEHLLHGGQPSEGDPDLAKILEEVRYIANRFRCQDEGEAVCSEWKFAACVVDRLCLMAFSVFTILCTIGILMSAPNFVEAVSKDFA
# α3 nAChR, sequence (A0A287A7Z4 30-503 limits assumed): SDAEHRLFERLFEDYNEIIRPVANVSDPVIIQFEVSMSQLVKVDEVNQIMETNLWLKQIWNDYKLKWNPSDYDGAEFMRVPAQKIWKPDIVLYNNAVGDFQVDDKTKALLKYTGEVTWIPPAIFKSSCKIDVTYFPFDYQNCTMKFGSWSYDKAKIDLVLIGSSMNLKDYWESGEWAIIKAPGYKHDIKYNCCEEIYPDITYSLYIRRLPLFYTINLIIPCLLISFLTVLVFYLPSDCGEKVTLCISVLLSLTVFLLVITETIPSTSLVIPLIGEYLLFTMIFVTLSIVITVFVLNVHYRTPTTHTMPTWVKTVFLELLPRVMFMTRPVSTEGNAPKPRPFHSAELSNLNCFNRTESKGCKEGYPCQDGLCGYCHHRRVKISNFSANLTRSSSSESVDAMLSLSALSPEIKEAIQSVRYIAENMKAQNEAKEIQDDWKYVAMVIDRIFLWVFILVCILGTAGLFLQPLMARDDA
compound,measurement,setting,value
α-Bungarotoxin [α-BTX],Ki,α7 nAChR; read-out: Mean Ki against [125I]-α-BTX,170 ± 40 nM
same,Percent inhibition of [3H]-cytisine binding,α4 nAChR; 0.1 µM,3% ± 3
same,Effect of antagonist on neuroprotection by PNU-282987,[1],reduction in the neuroprotective effects
same,IC50,α7 nAChRs,1.6 nM
same,IC50,α3β4 receptors,> 3000 nM
O=C(N[C@H]1CN2CCC1CC2)c1ccc(Cl)cc1 [PNU-282987],Neuroprotection against glutamate-induced excitotoxicity,[1],effective in the low-to-mid nanomolar concentration range
same,Cell numbers in porcine retinal cell culture relative to control,[2],increased numbers of cells
same,Cell numbers in isolated rat RGC culture relative to control,isolated rat RGCs,increased numbers of cells
same,RGC cell numbers in the intact rat,RGC,increase in RGC cell numbers
Clc1ccc(C2CC3CCC2N3)cn1 (centres unmarked) [epibatidine],inhibition at 100 µM,α7 nAChR; read-out: Percent inhibition of [125I]-α-BTX binding,3%
same,Ki,α4 nAChR,0.1 ± 0.03 nM
same,Ki,α3 nAChR,0.7 ± 0.05 nM
same,"Threshold dose, calcium response",retinal ganglion cells,1 nM
same,Ki,α4β2 nicotinic receptors,0.02 nM
same,Ki,α7 nicotinic receptors,233 nM
CN1CCC[C@H]1c1cccnc1 [nicotine],Ki,α7 nAChR,300000 ± 22000 nM
same,Ki,α4 nAChR,20 ± 0.7 nM
same,Ki,α3 nAChR,220 ± 0.6 nM
same,"Saturating dose, calcium response",retinal ganglion cells; [3],20 µM
same,"Threshold dose, calcium response",retinal ganglion cells; [3],2000 nM
same,Protection against glutamate-induced excitotoxicity at higher levels,[1]; additional preliminary and published experiments ([47]),drop-off in protection at higher levels
same,Concentration at which toxicity reported,adult porcine RGCs,50 µM
same,Reduction of glutamate-induced excitotoxicity,adult porcine RGCs,significantly reduced
"CC(=O)OCC[N+](C)(C)C [ACh, acetylcholine]",Reduction of glutamate-induced excitotoxicity,adult porcine RGCs,significantly reduced
C[N+](C)(C)CCO [choline],Reduction of glutamate-induced excitotoxicity,adult porcine RGCs,significantly reduced
"CCN1C[C@]2(COC(=O)c3ccccc3N3C(=O)C[C@H](C)C3=O)CC[C@H](OC)[C@@]34[C@@H]5C[C@H]6[C@H](OC)[C@@H]5[C@](O)(C[C@@H]6OC)[C@@](O)([C@@H](OC)[C@H]23)[C@@H]14 [MLA, Methyllycaconitine]",Block of neuroprotective effect of 100 nM PNU-282987 against glutamate-induced toxicity,isolated rat RGCs,blocked; also recorded: inhibited the protective effects
